Assay results published in ChEMBL document CHEMBL4311999, “3-Hydrazinoisatin-based benzenesulfonamides as novel carbonic anhydrase inhibitors endowed with anticancer activity: Synthesis, in vitro biological evaluation and in silico insights” (Eur J Med Chem, 2019).

Tests used:
[1] = test system: OVCAR-5; assay: Growth inhibition of human OVCAR5 cells at 10 uM incubated for 48 hrs by sulforhodamine B assay relative to control; type: functional; settings: OVCAR-5, 48 h, read-out: GI
[2] = test system: HCT-15; assay: Growth inhibition of human HCT15 cells at 10 uM incubated for 48 hrs by sulforhodamine B assay relative to control; type: functional; settings: HCT-15, 48 h, read-out: GI
[3] = test system: MDA-MB-435; assay: Growth inhibition of human MDA-MB-435 cells at 10 uM incubated for 48 hrs by sulforhodamine B assay relative to control; type: functional; settings: MDA-MB-435, 48 h, read-out: GI
[4] = test system: BT-549; assay: Growth inhibition of human BT549 cells at 10 uM incubated for 48 hrs by sulforhodamine B assay relative to control; type: functional; settings: BT-549, 48 h, read-out: GI
[5] = test system: MDA-MB-468; assay: Growth inhibition of human MDA-MB-468 cells at 10 uM incubated for 48 hrs by sulforhodamine B assay relative to control; type: functional; settings: MDA-MB-468, 48 h, read-out: GI
[6] = test system: MOLT-4; assay: Growth inhibition of human MOLT4 cells at 10 uM incubated for 48 hrs by sulforhodamine B assay relative to control; type: functional; settings: MOLT-4, 48 h, read-out: GI
[7] = test system: NCI/ADR-RES; assay: Growth inhibition of human NCI/ADR-RES cells at 10 uM incubated for 48 hrs by sulforhodamine B assay relative to control; type: functional; settings: read-out: GI
[8] = test system: UACC-62; assay: Growth inhibition of human UACC62 cells at 10 uM incubated for 48 hrs by sulforhodamine B assay relative to control; type: functional; settings: UACC-62, 48 h, read-out: GI
[9] = test system: Hs-578T; assay: Growth inhibition of human Hs 578T cells at 10 uM incubated for 48 hrs by sulforhodamine B assay relative to control; type: functional; settings: read-out: GI
[10] = test system: A498; assay: Growth inhibition of human A498 cells at 10 uM incubated for 48 hrs by sulforhodamine B assay relative to control; type: functional; settings: A498, 48 h, read-out: GI
[11] = test system: SNB-19; assay: Growth inhibition of human SNB19 cells at 10 uM incubated for 48 hrs by sulforhodamine B assay relative to control; type: functional; settings: SNB-19, 48 h, read-out: GI
[12] = test system: PC-3; assay: Growth inhibition of human PC3 cells at 10 uM incubated for 48 hrs by sulforhodamine B assay relative to control; type: functional; settings: PC-3, 48 h, read-out: GI
[13] = test system: SR; assay: Growth inhibition of human SR cells at 10 uM incubated for 48 hrs by sulforhodamine B assay relative to control; type: functional; settings: read-out: GI
[14] = test system: 786-0; assay: Growth inhibition of human 786-0 cells at 10 uM incubated for 48 hrs by sulforhodamine B assay relative to control; type: functional; settings: 786-0, 48 h, read-out: GI
[15] = test system: SF-268; assay: Growth inhibition of human SF268 cells at 10 uM incubated for 48 hrs by sulforhodamine B assay relative to control; type: functional; settings: SF-268, 48 h, read-out: GI
[16] = test system: RXF 393; assay: Growth inhibition of human RXF393 cells at 10 uM incubated for 48 hrs by sulforhodamine B assay relative to control; type: functional; settings: RXF 393, 48 h, read-out: GI
[17] = test system: NCI-H23; assay: Growth inhibition of human NCI-H23 cells at 10 uM incubated for 48 hrs by sulforhodamine B assay relative to control; type: functional; settings: NCI-H23, 48 h, read-out: GI
[18] = test system: LOX IMVI; assay: Growth inhibition of human LOXIMVI cells at 10 uM incubated for 48 hrs by sulforhodamine B assay relative to control; type: functional; settings: read-out: GI
[19] = test system: SK-MEL-28; assay: Growth inhibition of human SK-MEL-28 cells at 10 uM incubated for 48 hrs by sulforhodamine B assay relative to control; type: functional; settings: SK-MEL-28, 48 h, read-out: GI
[20] = test system: COLO 205; assay: Growth inhibition of human COLO205 cells at 10 uM incubated for 48 hrs by sulforhodamine B assay relative to control; type: functional; settings: COLO 205, 48 h, read-out: GI
[21] = test system: CCRF-CEM; assay: Growth inhibition of human CCRF-CEM cells at 10 uM incubated for 48 hrs by sulforhodamine B assay relative to control; type: functional; settings: read-out: GI
[22] = test system: EKVX; assay: Growth inhibition of human EKVX cells at 10 uM incubated for 48 hrs by sulforhodamine B assay relative to control; type: functional; settings: read-out: GI
[23] = test system: HT-29; assay: Growth inhibition of human HT-29 cells at 10 uM incubated for 48 hrs by sulforhodamine B assay relative to control; type: functional; settings: HT-29, 48 h, read-out: GI
[24] = test system: HCT-116; assay: Inhibition of clonogenicity in human HCT116 cells assessed as reduction in colony formation treated for 10 days by crystal violet staining; type: functional, cell-based
[25] = test system: TK-10; assay: Growth inhibition of human TK10 cells at 10 uM incubated for 48 hrs by sulforhodamine B assay relative to control; type: functional; settings: TK-10, 48 h, read-out: GI
[26] = test system: SK-MEL-2; assay: Growth inhibition of human SK-MEL-2 cells at 10 uM incubated for 48 hrs by sulforhodamine B assay relative to control; type: functional; settings: SK-MEL-2, 48 h, read-out: GI
[27] = test system: KM12; assay: Growth inhibition of human KM12 cells at 10 uM incubated for 48 hrs by sulforhodamine B assay relative to control; type: functional; settings: KM12, 48 h, read-out: GI

Compound `NS(=O)(=O)c1ccc(N/N=C2\C(=O)N(Cc3ccccc3)c3ccc(Cl)cc32)cc1` has an inhibition of growth at 10 µM [1] of 13%, an inhibition of growth at 10 µM [2] of 11% and an inhibition of growth at 10 µM [3] of 21%. For the same compound, the inhibition of growth at 10 µM [4] was 19%, the inhibition of growth at 10 µM [5] was 17% and the inhibition of growth at 10 µM [6] was 28%. For the same compound, the inhibition of growth at 10 µM [7] was 18%, the inhibition of growth at 10 µM [8] was 34% and the inhibition of growth at 10 µM [9] was 55%. The inhibition of growth at 10 µM [10] was 22%, the inhibition of growth at 10 µM [11] was 59% and the inhibition of growth at 10 µM [12] was 16%. For the same compound, the inhibition of growth at 10 µM [13] was 40%, the inhibition of growth at 10 µM [14] was 52% and the inhibition of growth at 10 µM [15] was 35%. It also gave an inhibition of growth at 10 µM [16] of 55%.

Compound `CCOC(=O)CN1C(=O)/C(=N\Nc2ccc(S(N)(=O)=O)cc2)c2cc(Br)ccc21` has an inhibition of growth at 10 µM [1] of 14%, an inhibition of growth at 10 µM [17] of 23% and an inhibition of growth at 10 µM [2] of 15%. It also gave an inhibition of growth at 10 µM [18] of 14%, an inhibition of growth at 10 µM [19] of 15% and an inhibition of growth at 10 µM [6] of 23%. It also gave an inhibition of growth at 10 µM [7] of 10%, an inhibition of growth at 10 µM [20] of 42% and an inhibition of growth at 10 µM [9] of 10%. For the same compound, the inhibition of growth at 10 µM [21] was 47%, the inhibition of growth at 10 µM [22] was 17% and the inhibition of growth at 10 µM [12] was 29%. For the same compound, the inhibition of growth at 10 µM [13] was 25%, the inhibition of growth at 10 µM [23] was 36% and the inhibition [24] was “Dose-dependent effect”. The inhibition of growth at 10 µM [25] was 14%, the inhibition of growth at 10 µM [16] was 57% and the inhibition of growth at 10 µM [26] was 11%. The inhibition of growth at 10 µM [27] was 30%.
